This is an account of results in PubChem BioAssay AID1259407 (Chemical Carcinogenesis Research Information System (CCRIS), 2018).

The structures appear in SMILES notation. Active and inactive are the calls of the source. No rule for the calls is given here.

The test system of the data set is CCRIS mutagenicity, Ames/micronucleus/aberration tests. Nature of the data set: CCRIS mutagenicity studies.
The mark [1] stands for this setting: Test System: AMES SALMONELLA TYPHIMURIUM, Strain/Indicator: TA98, Metabolic Activation: HAMSTER, LIVER, S-9, AROCLOR 1254, Method: STANDARD PLATE.
[2] abbreviates: Test System: AMES SALMONELLA TYPHIMURIUM, Strain/Indicator: TA98, Metabolic Activation: NONE, Method: STANDARD PLATE.
The mark [3] stands for this setting: Test System: AMES SALMONELLA TYPHIMURIUM, Strain/Indicator: TA98, Metabolic Activation: RAT, LIVER, S-9, AROCLOR 1254, Method: STANDARD PLATE.
Setting [4] is: Test System: AMES SALMONELLA TYPHIMURIUM, Strain/Indicator: TA100, Metabolic Activation: HAMSTER, LIVER, S-9, AROCLOR 1254, Method: STANDARD PLATE.
Setting [5] is: Test System: AMES SALMONELLA TYPHIMURIUM, Strain/Indicator: TA100, Metabolic Activation: NONE, Method: STANDARD PLATE.
Setting [6] is: Test System: AMES SALMONELLA TYPHIMURIUM, Strain/Indicator: TA100, Metabolic Activation: RAT, LIVER, S-9, AROCLOR 1254, Method: STANDARD PLATE.
Where [7] appears, read: Test System: AMES SALMONELLA TYPHIMURIUM, Strain/Indicator: TA1535, Metabolic Activation: NONE, Method: STANDARD PLATE.
The mark [8] stands for this setting: Test System: AMES SALMONELLA TYPHIMURIUM, Strain/Indicator: TA1537, Metabolic Activation: NONE, Method: STANDARD PLATE.
The mark [9] stands for this setting: Test System: AMES SALMONELLA TYPHIMURIUM, Strain/Indicator: TA1538, Metabolic Activation: HAMSTER, LIVER, S-9, AROCLOR 1254, Method: STANDARD PLATE.
[10] abbreviates: Test System: AMES SALMONELLA TYPHIMURIUM, Strain/Indicator: TA1538, Metabolic Activation: NONE, Method: STANDARD PLATE.
The mark [11] stands for this setting: Test System: AMES SALMONELLA TYPHIMURIUM, Strain/Indicator: TA1538, Metabolic Activation: RAT, LIVER, S-9, AROCLOR 1254, Method: STANDARD PLATE.
The mark [12] stands for this setting: Test System: MOUSE LYMPHOMA, Strain/Indicator: L5178Y (TK+/TK-), Metabolic Activation: NONE, Method: SUSPENSION/PLATE.
Where [13] appears, read: Test System: MOUSE LYMPHOMA, Strain/Indicator: L5178Y (TK+/TK-), Metabolic Activation: RAT, LIVER, S-9, AROCLOR 1254, Method: SUSPENSION/PLATE.
Where [14] appears, read: Test System: AMES SALMONELLA TYPHIMURIUM, Strain/Indicator: TA102, Metabolic Activation: NONE, Method: STANDARD PLATE.

As for `COc1ccc2nc(N)sc2c1`, the mutagenic call is “active; positive” under setting [1]; “active; positive” under setting [2]; “active; positive” under setting [3]; “active; positive” under setting [4]; “inactive; negative” under setting [5]; “active; positive” under setting [6]. The mutagenic call by setting is: (Test System: AMES SALMONELLA TYPHIMURIUM, Strain/Indicator: TA1535, Metabolic Activation: HAMSTER, LIVER, S-9, AROCLOR 1254, Method: STANDARD PLATE) “active; positive”; under setting [7], “inactive; negative”; (Test System: AMES SALMONELLA TYPHIMURIUM, Strain/Indicator: TA1535, Metabolic Activation: RAT, LIVER, S-9, AROCLOR 1254, Method: STANDARD PLATE) “active; positive”; (Test System: AMES SALMONELLA TYPHIMURIUM, Strain/Indicator: TA1537, Metabolic Activation: HAMSTER, LIVER, S-9, AROCLOR 1254, Method: STANDARD PLATE) “active; positive”; under setting [8], “inactive; negative”; (Test System: AMES SALMONELLA TYPHIMURIUM, Strain/Indicator: TA1537, Metabolic Activation: RAT, LIVER, S-9, AROCLOR 1254, Method: STANDARD PLATE) “active; positive”. Moreover, the mutagenic call runs as follows: under setting [9], “active; positive”; under setting [10], “active; positive”; under setting [11], “active; positive”; under setting [12], “inactive; negative. reevaluation of results: negative”; under setting [13], “active; positive. reevaluation of results: positive”.

For `C=CCc1cc(OC)c2c(c1)OCO2`, for the setting “Test System: UDS RAT HEPATOCYTES, Strain/Indicator: THY INCORP, Metabolic Activation: NONE, Method: LIQUID SCINTILLATION COUNTING”, the mutagenic call is “inactive; negative”.

In the case of `O=C1OCC(C(Cl)Cl)=C1Cl`, the mutagenic call by setting is: under setting [2], “inactive; negative”; under setting [3], “inactive; negative”; under setting [14], “active; positive”; (Test System: AMES SALMONELLA TYPHIMURIUM, Strain/Indicator: TA102, Metabolic Activation: RAT, LIVER, S-9, AROCLOR 1254, Method: STANDARD PLATE) “inactive; negative”.

As for `CCN(CC[N+](C)(C)C)c1ccc(N=Nc2ccc([N+](=O)[O-])cc2Cl)cc1`, the mutagenic call runs as follows: under setting [1], “active; positive”; (Test System: AMES SALMONELLA TYPHIMURIUM, Strain/Indicator: TA98, Metabolic Activation: HAMSTER, LIVER, S-9, Method: PREINCUBATION (PRIVAL METHOD)) “active; positive”; under setting [2], “active; positive”; under setting [3], “active; positive”; under setting [4], “active; positive”; under setting [5], “active; positive”. Further, the mutagenic call runs as follows: under setting [6], “active; positive”; under setting [8], “active; positive”; under setting [9], “active; positive”; under setting [10], “active; positive”; under setting [11], “active; positive”; (Test System: Ames Salmonella typhimurium, Strain/Indicator: TA98, Metabolic Activation: None, Method: Preincubation) “active; positive”. Besides, the mutagenic call by setting is: (Test System: Ames Salmonella typhimurium, Strain/Indicator: TA100, Metabolic Activation: None, Method: Preincubation) “inactive; negative”; (Test System: Ames Salmonella typhimurium, Strain/Indicator: TA102, Metabolic Activation: None, Method: Preincubation) “inactive; negative”; (Test System: Ames Salmonella typhimurium, Strain/Indicator: TA1535, Metabolic Activation: None, Method: Preincubation) “inactive; negative”; under setting [12], “inactive; negative. reevaluation of results: negative”; under setting [13], “active; positive. reevaluation of results: positive”.

Regarding `[N-]=[N+]=CC(=O)NCC(N)=O`, the mutagenic call by setting is: under setting [7], “active; positive”; (Test System: UDS RODENT CELLS, Strain/Indicator: THY INCORP (NON-S-PHASE), Metabolic Activation: NONE, Method: AUTORADIOGRAPHY) “active; positive”.

On to `CC(C)=CCC/C(C)=C/C=O`, for which the mutagenic call runs as follows: (Test System: AMES SALMONELLA TYPHIMURIUM, Strain/Indicator: TA97A, Metabolic Activation: NONE, Method: STANDARD PLATE) “inactive; negative”; (Test System: AMES SALMONELLA TYPHIMURIUM, Strain/Indicator: TA97A, Metabolic Activation: RAT LIVER S-9, AROCLOR 1254, Method: STANDARD PLATE) “inactive; negative”; (Test System: AMES SALMONELLA TYPHIMURIUM, Strain/Indicator: TA98, Metabolic Activation: HAMSTER, LIVER, S-9, AROCLOR 1254 (10%), Method: PREINCUBATION) “inactive; negative”; (Test System: AMES SALMONELLA TYPHIMURIUM, Strain/Indicator: TA98, Metabolic Activation: NONE, Method: PREINCUBATION) “inactive; negative”; under setting [2], “inactive; negative”; (Test System: AMES SALMONELLA TYPHIMURIUM, Strain/Indicator: TA98, Metabolic Activation: RAT LIVER S-9, AROCLOR 1254, Method: STANDARD PLATE) “inactive; negative”. Besides, the mutagenic call by setting is: (Test System: AMES SALMONELLA TYPHIMURIUM, Strain/Indicator: TA98, Metabolic Activation: RAT, LIVER, S-9, AROCLOR 1254 (10%), Method: PREINCUBATION) “inactive; negative”; (Test System: AMES SALMONELLA TYPHIMURIUM, Strain/Indicator: TA100, Metabolic Activation: HAMSTER, LIVER, S-9, AROCLOR 1254 (10%), Method: PREINCUBATION) “inactive; negative”; (Test System: AMES SALMONELLA TYPHIMURIUM, Strain/Indicator: TA100, Metabolic Activation: NONE, Method: PREINCUBATION) “inactive; negative”; under setting [5], “inactive; negative”; (Test System: AMES SALMONELLA TYPHIMURIUM, Strain/Indicator: TA100, Metabolic Activation: RAT LIVER S-9, AROCLOR 1254, Method: STANDARD PLATE) “inactive; negative”; (Test System: AMES SALMONELLA TYPHIMURIUM, Strain/Indicator: TA100, Metabolic Activation: RAT, LIVER, S-9, AROCLOR 1254 (10%), Method: PREINCUBATION) “inactive; negative”. Besides, the mutagenic call reads like this: under setting [14], “inactive; negative”; (Test System: AMES SALMONELLA TYPHIMURIUM, Strain/Indicator: TA102, Metabolic Activation: RAT LIVER S-9, AROCLOR 1254, Method: STANDARD PLATE) “inactive; negative”; (Test System: AMES SALMONELLA TYPHIMURIUM, Strain/Indicator: TA1535, Metabolic Activation: HAMSTER, LIVER, S-9, AROCLOR 1254 (10%), Method: PREINCUBATION) “inactive; negative”; (Test System: AMES SALMONELLA TYPHIMURIUM, Strain/Indicator: TA1535, Metabolic Activation: NONE, Method: PREINCUBATION) “inactive; negative”; (Test System: AMES SALMONELLA TYPHIMURIUM, Strain/Indicator: TA1535, Metabolic Activation: RAT, LIVER, S-9, AROCLOR 1254 (10%), Method: PREINCUBATION) “inactive; negative”; (Test System: AMES SALMONELLA TYPHIMURIUM, Strain/Indicator: TA1537, Metabolic Activation: HAMSTER, LIVER, S-9, AROCLOR 1254 (10%), Method: PREINCUBATION) “inactive; negative”. For the same molecule, the mutagenic call is “inactive; negative” (Test System: AMES SALMONELLA TYPHIMURIUM, Strain/Indicator: TA1537, Metabolic Activation: NONE, Method: PREINCUBATION) and “inactive; negative” (Test System: AMES SALMONELLA TYPHIMURIUM, Strain/Indicator: TA1537, Metabolic Activation: RAT, LIVER, S-9, AROCLOR 1254 (10%), Method: PREINCUBATION).
